# How the values were obtained:
# Experiment in all cases: Glasshouse herbicidal test, pre- and post-emergence, percentage damage to the plant
# Format in all cases: in vivo
# [1] = test system: Alopecurus myosuroides (ALOMY); conditions: 250 g/h, evaluated after 13 days; for ALOMY POST percentage damage caused to the plant (five-point scale): post-emergence; for ALOMY PRE percentage damage caused to the plant (five-point scale): pre-emergence
# Description: (§1) Seeds of a variety of test species are sown in standard soil in pots (Lolium perenne (LOLPE), Setaria faberi (SETFA), Alopecurus myosuroides (ALOMY), Echinochloa crus-galli (ECHCG), Avena fatua (AVEFA)). After cultivation for one day (pre-emergence) or after 8 days cultivation (post-emergence) under controlled conditions in a glasshouse (at 24/16° C., day/night; 14 hours light; 65% humidity), the plants are sprayed with an aqueous spray solution derived from the formulation of the technical active ingredient in acetone/water (50:50) solution containing 0.5% Tween 20 (polyoxyethelyene sorbitan monolaurate, CAS RN 9005-64-5). Compounds are applied at 250 g/h. The test plants are then grown in a glasshouse under controlled conditions in a glasshouse (at 24/16° C., day/night; 14 hours light; 65% humidity) and watered twice daily. After 13 days for pre and post-emergence, the test is evaluated for the percentage damage caused to the plant. The biological activities are shown in the following table on a five-point scale (5=80-100%; 4=60-79%; 3=40-59%; 2=20-39%; 1=0-19%).
# Avena fatua (AVEFA) = conditions: 250 g/h, evaluated after 13 days; for AVEFA POST percentage damage caused to the plant (five-point scale): post-emergence; for AVEFA PRE percentage damage caused to the plant (five-point scale): pre-emergence
# Description: as §1
# [2] = test system: Echinochloa crus-galli (ECHCG); conditions: 250 g/h, evaluated after 13 days; for ECHCG POST percentage damage caused to the plant (five-point scale): post-emergence; for ECHCG PRE percentage damage caused to the plant (five-point scale): pre-emergence
# Description: as §1
# Lolium perenne (LOLPE) = conditions: 250 g/h, evaluated after 13 days; for LOLPE POST percentage damage caused to the plant (five-point scale): post-emergence; for LOLPE PRE percentage damage caused to the plant (five-point scale): pre-emergence
# Description: as §1
# Setaria faberi (SETFA) = conditions: 250 g/h, evaluated after 13 days; for SETFA POST percentage damage caused to the plant (five-point scale): post-emergence; for SETFA PRE percentage damage caused to the plant (five-point scale): pre-emergence
# Description: as §1
smiles,measurement,setting,value
CC(=O)N1CCC2(CC1)CC(=O)C(c1c(C)cc(-c3ccc(C#N)cn3)cc1Cl)C(=O)C2 [Compound A56],ALOMY POST percentage damage caused to the plant (five-point scale),[1],5 (5=80-100%)
same,ALOMY PRE percentage damage caused to the plant (five-point scale),[1],3 (3=40-59%)
same,AVEFA POST percentage damage caused to the plant (five-point scale),Avena fatua (AVEFA),5 (5=80-100%)
same,AVEFA PRE percentage damage caused to the plant (five-point scale),Avena fatua (AVEFA),3 (3=40-59%)
same,ECHCG POST percentage damage caused to the plant (five-point scale),[2],5 (5=80-100%)
same,ECHCG PRE percentage damage caused to the plant (five-point scale),[2],4 (4=60-79%)
same,LOLPE POST percentage damage caused to the plant (five-point scale),Lolium perenne (LOLPE),5 (5=80-100%)
same,LOLPE PRE percentage damage caused to the plant (five-point scale),Lolium perenne (LOLPE),5 (5=80-100%)
same,SETFA POST percentage damage caused to the plant (five-point scale),Setaria faberi (SETFA),5 (5=80-100%)
same,SETFA PRE percentage damage caused to the plant (five-point scale),Setaria faberi (SETFA),5 (5=80-100%)
CC#Cc1cc(Cl)c(C2C(=O)CC3(CCN(C(=O)NC(=O)c4ccccn4)CC3)CC2=O)c(OC)c1 [Compound A11],ALOMY POST percentage damage caused to the plant (five-point scale),[1],5 (5=80-100%)
same,ALOMY PRE percentage damage caused to the plant (five-point scale),[1],5 (5=80-100%)
same,AVEFA POST percentage damage caused to the plant (five-point scale),Avena fatua (AVEFA),5 (5=80-100%)
same,AVEFA PRE percentage damage caused to the plant (five-point scale),Avena fatua (AVEFA),3 (3=40-59%)
same,ECHCG POST percentage damage caused to the plant (five-point scale),[2],5 (5=80-100%)
same,ECHCG PRE percentage damage caused to the plant (five-point scale),[2],5 (5=80-100%)
same,LOLPE POST percentage damage caused to the plant (five-point scale),Lolium perenne (LOLPE),5 (5=80-100%)
same,LOLPE PRE percentage damage caused to the plant (five-point scale),Lolium perenne (LOLPE),5 (5=80-100%)
same,SETFA POST percentage damage caused to the plant (five-point scale),Setaria faberi (SETFA),5 (5=80-100%)
same,SETFA PRE percentage damage caused to the plant (five-point scale),Setaria faberi (SETFA),5 (5=80-100%)
CC#Cc1cc(Cl)c(C2C(=O)CC3(CCN(C(=O)COC(F)F)CC3)CC2=O)c(Cl)c1 [Compound A18],ALOMY POST percentage damage caused to the plant (five-point scale),[1],5 (5=80-100%)
same,ALOMY PRE percentage damage caused to the plant (five-point scale),[1],5 (5=80-100%)
same,AVEFA POST percentage damage caused to the plant (five-point scale),Avena fatua (AVEFA),5 (5=80-100%)
same,AVEFA PRE percentage damage caused to the plant (five-point scale),Avena fatua (AVEFA),5 (5=80-100%)
same,ECHCG POST percentage damage caused to the plant (five-point scale),[2],5 (5=80-100%)
same,ECHCG PRE percentage damage caused to the plant (five-point scale),[2],5 (5=80-100%)
same,LOLPE POST percentage damage caused to the plant (five-point scale),Lolium perenne (LOLPE),5 (5=80-100%)
same,LOLPE PRE percentage damage caused to the plant (five-point scale),Lolium perenne (LOLPE),5 (5=80-100%)
same,SETFA POST percentage damage caused to the plant (five-point scale),Setaria faberi (SETFA),5 (5=80-100%)
same,SETFA PRE percentage damage caused to the plant (five-point scale),Setaria faberi (SETFA),5 (5=80-100%)
CC#Cc1cc(Cl)c(C2C(=O)CC3(CCN(C(=O)NC(=O)c4ccccn4)CC3)CC2=O)c(Cl)c1 [Compound A17],ALOMY POST percentage damage caused to the plant (five-point scale),[1],2 (2=20-39%)
same,ALOMY PRE percentage damage caused to the plant (five-point scale),[1],2 (2=20-39%)
same,AVEFA POST percentage damage caused to the plant (five-point scale),Avena fatua (AVEFA),5 (5=80-100%)
same,AVEFA PRE percentage damage caused to the plant (five-point scale),Avena fatua (AVEFA),2 (2=20-39%)
same,ECHCG POST percentage damage caused to the plant (five-point scale),[2],5 (5=80-100%)
same,ECHCG PRE percentage damage caused to the plant (five-point scale),[2],3 (3=40-59%)
same,LOLPE POST percentage damage caused to the plant (five-point scale),Lolium perenne (LOLPE),5 (5=80-100%)
same,LOLPE PRE percentage damage caused to the plant (five-point scale),Lolium perenne (LOLPE),2 (2=20-39%)
same,SETFA POST percentage damage caused to the plant (five-point scale),Setaria faberi (SETFA),5 (5=80-100%)
same,SETFA PRE percentage damage caused to the plant (five-point scale),Setaria faberi (SETFA),4 (4=60-79%)
COc1cc(-c2ccc(C#N)cn2)cc(Cl)c1C1C(=O)CC2(CCN(C(C)=O)CC2)CC1=O [Compound A13],ALOMY POST percentage damage caused to the plant (five-point scale),[1],5 (5=80-100%)
same,ALOMY PRE percentage damage caused to the plant (five-point scale),[1],3 (3=40-59%)
same,AVEFA POST percentage damage caused to the plant (five-point scale),Avena fatua (AVEFA),5 (5=80-100%)
same,AVEFA PRE percentage damage caused to the plant (five-point scale),Avena fatua (AVEFA),2 (2=20-39%)
same,ECHCG POST percentage damage caused to the plant (five-point scale),[2],5 (5=80-100%)
same,ECHCG PRE percentage damage caused to the plant (five-point scale),[2],5 (5=80-100%)
same,LOLPE POST percentage damage caused to the plant (five-point scale),Lolium perenne (LOLPE),5 (5=80-100%)
same,LOLPE PRE percentage damage caused to the plant (five-point scale),Lolium perenne (LOLPE),1 (1=0-19%)
same,SETFA POST percentage damage caused to the plant (five-point scale),Setaria faberi (SETFA),5 (5=80-100%)
same,SETFA PRE percentage damage caused to the plant (five-point scale),Setaria faberi (SETFA),2 (2=20-39%)
CC#Cc1cc(Cl)c(C2C(=O)CC3(CCN(C(C)=O)CC3)CC2=O)c(CC)c1 [Compound A49],ALOMY POST percentage damage caused to the plant (five-point scale),[1],5 (5=80-100%)
same,ALOMY PRE percentage damage caused to the plant (five-point scale),[1],5 (5=80-100%)
same,AVEFA POST percentage damage caused to the plant (five-point scale),Avena fatua (AVEFA),5 (5=80-100%)
same,AVEFA PRE percentage damage caused to the plant (five-point scale),Avena fatua (AVEFA),5 (5=80-100%)
same,ECHCG POST percentage damage caused to the plant (five-point scale),[2],5 (5=80-100%)
same,ECHCG PRE percentage damage caused to the plant (five-point scale),[2],5 (5=80-100%)
same,LOLPE POST percentage damage caused to the plant (five-point scale),Lolium perenne (LOLPE),5 (5=80-100%)
same,LOLPE PRE percentage damage caused to the plant (five-point scale),Lolium perenne (LOLPE),5 (5=80-100%)
same,SETFA POST percentage damage caused to the plant (five-point scale),Setaria faberi (SETFA),5 (5=80-100%)
same,SETFA PRE percentage damage caused to the plant (five-point scale),Setaria faberi (SETFA),5 (5=80-100%)
COc1cc(-c2ccc(C#N)cn2)cc(Cl)c1C1C(=O)CC2(CCN(C(=O)C3CC3)CC2)CC1=O [Compound A35],ALOMY POST percentage damage caused to the plant (five-point scale),[1],5 (5=80-100%)
same,ALOMY PRE percentage damage caused to the plant (five-point scale),[1],5 (5=80-100%)
same,AVEFA POST percentage damage caused to the plant (five-point scale),Avena fatua (AVEFA),5 (5=80-100%)
same,AVEFA PRE percentage damage caused to the plant (five-point scale),Avena fatua (AVEFA),5 (5=80-100%)
same,ECHCG POST percentage damage caused to the plant (five-point scale),[2],5 (5=80-100%)
same,ECHCG PRE percentage damage caused to the plant (five-point scale),[2],5 (5=80-100%)
same,LOLPE POST percentage damage caused to the plant (five-point scale),Lolium perenne (LOLPE),5 (5=80-100%)
same,LOLPE PRE percentage damage caused to the plant (five-point scale),Lolium perenne (LOLPE),5 (5=80-100%)
same,SETFA POST percentage damage caused to the plant (five-point scale),Setaria faberi (SETFA),5 (5=80-100%)
same,SETFA PRE percentage damage caused to the plant (five-point scale),Setaria faberi (SETFA),5 (5=80-100%)
"CCc1cc(-c2ccc(C#N)cn2)cc(C)c1C1C(=O)CC2(CCN(C(=O)C3CC3)CC2)CC1=O [Compound A51, 6-[4-[3-(cyclopropanecarbonyl)-8,10-dioxo-3-azaspiro[5.5]undecan-9-yl]-3-ethyl-5-methyl-phenyl]pyridine-3-carbonitrile]",ALOMY POST percentage damage caused to the plant (five-point scale),[1],5 (5=80-100%)
same,ALOMY PRE percentage damage caused to the plant (five-point scale),[1],5 (5=80-100%)
same,AVEFA POST percentage damage caused to the plant (five-point scale),Avena fatua (AVEFA),5 (5=80-100%)
same,AVEFA PRE percentage damage caused to the plant (five-point scale),Avena fatua (AVEFA),5 (5=80-100%)
same,ECHCG POST percentage damage caused to the plant (five-point scale),[2],5 (5=80-100%)
same,ECHCG PRE percentage damage caused to the plant (five-point scale),[2],4 (4=60-79%)
same,LOLPE POST percentage damage caused to the plant (five-point scale),Lolium perenne (LOLPE),5 (5=80-100%)
same,LOLPE PRE percentage damage caused to the plant (five-point scale),Lolium perenne (LOLPE),5 (5=80-100%)
same,SETFA POST percentage damage caused to the plant (five-point scale),Setaria faberi (SETFA),5 (5=80-100%)
same,SETFA PRE percentage damage caused to the plant (five-point scale),Setaria faberi (SETFA),5 (5=80-100%)
CCc1cc(-c2ccc(C#N)cn2)cc(Cl)c1C1C(=O)CC2(CCN(C(=O)C3CC3)CC2)CC1=O [Compound A53],ALOMY POST percentage damage caused to the plant (five-point scale),[1],5 (5=80-100%)
same,ALOMY PRE percentage damage caused to the plant (five-point scale),[1],5 (5=80-100%)
same,AVEFA POST percentage damage caused to the plant (five-point scale),Avena fatua (AVEFA),5 (5=80-100%)
same,AVEFA PRE percentage damage caused to the plant (five-point scale),Avena fatua (AVEFA),5 (5=80-100%)
same,ECHCG POST percentage damage caused to the plant (five-point scale),[2],5 (5=80-100%)
same,ECHCG PRE percentage damage caused to the plant (five-point scale),[2],5 (5=80-100%)
same,LOLPE POST percentage damage caused to the plant (five-point scale),Lolium perenne (LOLPE),5 (5=80-100%)
same,LOLPE PRE percentage damage caused to the plant (five-point scale),Lolium perenne (LOLPE),5 (5=80-100%)
same,SETFA POST percentage damage caused to the plant (five-point scale),Setaria faberi (SETFA),5 (5=80-100%)
same,SETFA PRE percentage damage caused to the plant (five-point scale),Setaria faberi (SETFA),5 (5=80-100%)

# — patent US12590067B2, “Herbicidal cyclohexanedione derivatives” (SYNGENTA CROP PROTECTION AG, priority 2019, dated 2026)
